Where “and” joins values, the source holds several entries; their conditions need not be identical. Identical values can stand only once.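 Step 1: Grow cells in 96-well plates. Step 2: Expose to compound for 48 hours at 5 concentrations. Step 3: Interpolate endpoints linearly; if unreached, use highest concentration. GI50 is the concentration that inhibits growth by half. TGI: concentration producing complete growth inhibition.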
Assays:
Test in all cases: inhibition of tumour cell growth, NCI panel, 48 h
BT-549 breast = system: BT-549 breast
HT29 colon = system: HT29 colon
NCI-H226 lung = system: NCI-H226 lung
NCI-H23 lung = system: NCI-H23 lung
OVCAR-3 ovarian = system: OVCAR-3 ovarian
OVCAR-5 ovarian = system: OVCAR-5 ovarian
RPMI-8226 leukemia = system: RPMI-8226 leukemia
SF-295 CNS = system: SF-295 CNS
SN12C renal = system: SN12C renal
SNB-19 CNS = system: SNB-19 CNS

Structure (SMILES)	GI50 (BT-549 breast) [µM]	TGI (BT-549 breast) [µM]	GI50 (HT29 colon)	TGI (HT29 colon)	GI50 (NCI-H226 lung) [µM]	TGI (NCI-H226 lung)	GI50 (NCI-H23 lung) [µM]	TGI (NCI-H23 lung)	GI50 (OVCAR-3 ovarian) [µM]	TGI (OVCAR-3 ovarian)	GI50 (OVCAR-5 ovarian) [µM]	TGI (OVCAR-5 ovarian)	GI50 (RPMI-8226 leukemia)	TGI (RPMI-8226 leukemia)	GI50 (SF-295 CNS) [µM]	TGI (SF-295 CNS)	GI50 (SN12C renal) [µM]	TGI (SN12C renal)	GI50 (SNB-19 CNS) [µM]	TGI (SNB-19 CNS)
COc1ccc(/C(C#N)=C/c2cc(OC)c(OC)c(OC)c2)cc1	21.1	70	11.8 µM	85.8 µM	29.1	> 100 µM	20.1	88.4 µM	33.8	> 100 µM	35.3	> 100 µM	16.6 µM	56.1 µM	15	41.9 µM	27.2	> 100 µM	28	> 100 µM
COC(=O)c1c2c(c(C)[n+]([O-])c1C)C(=O)C=C(NCc1cccc(Cl)c1)C2=O	1.26	2.63	0.31 µM		1.41	3.55 µM	0.463	2.54 µM	0.221	0.665 µM	1.18	2.57 µM	0.86 µM	4.28 µM	0.422	1.66 µM	0.298	1.02 µM	1.01	2.18 µM
CC(C)=CC(=O)N[C@H]1CC[C@]2(C)C3CC[C@]4(C)C(C(C)N(C)C)=CCC4C3CCC2[C@H]1O (some centres undefined)	5.99	20.8	0.676 µM	2.92 µM	8.49	25.7 µM	9.27	22.7 µM	4.12	15.7 µM	10.9	25.2 µM	2.41 µM	9.3 µM	2.64	9.07 µM	5.27	19.1 µM	14.8	28.1 µM
O=c1oc2cc(OC/C(=N/O)c3ccc(F)cc3)ccc2c2ccccc12	21.7	42.3	19.4 µM	43.2 µM	22.3	40.6 µM	19.1	34.2 µM	17.6	40.6 µM	19.4	40 µM	31.8 µM	> 100 µM	18.4	41.5 µM	20.1	37.3 µM	21.8	46.3 µM
CC(C)C(=O)c1c(C(F)(F)F)n([O-])c2cc(F)c(F)cc2[n+]1=O	0.587	1.9	0.168 µM	0.547 µM	1.26	2.54 µM	0.263	1.16 µM	0.667	2.01 µM	1.24	2.58 µM	0.0666 µM	12.3 µM	1.19	2.56 µM	0.288	0.767 µM	1.34	3.08 µM
NC(N)=NC(N)=NCCCc1ccco1	39.6	152	> 500 µM	> 500 µM	98.3	351 µM	463	> 500 µM	114	329 µM	148	> 500 µM	23.7 µM	101 µM	163	> 500 µM	87.2	253 µM	> 500	> 500 µM
CCC1(OC(=O)CN)C(=O)OCc2c1cc1n(c2=O)Cc2cc3ccccc3nc2-1 (centres undefined)	0.459		0.111 µM and 0.0374 µM	> 100 µM	0.0151	0.15 µM and 0.0638 µM	0.0191	0.15 µM and 0.0424 µM	0.308	0.731 µM and 0.557 µM	0.0728	0.6 µM and 0.533 µM	0.031 µM	0.209 µM	0.00249		0.00715	0.64 µM	0.0128	4.91 µM
Nc1nc(SCc2ccccc2Cl)cc(C(=O)O)n1		> 100		> 100 µM		> 100 µM		> 100 µM		89.2 µM		> 100 µM		> 100 µM		> 100 µM		> 100 µM		> 100 µM
CC(=O)O[C@H]1C(=O)[C@@]2(C)[C@H]([C@H](OC(=O)c3ccccc3)[C@]3(O)C[C@H](OC(=O)[C@H](OC(=O)OC[C@H]4COC(C)(C)O4)[C@@H](NC(=O)c4ccccc4)c4ccccc4)C(C)=C1C3(C)C)[C@]1(OC(C)=O)CO[C@@H]1C[C@@H]2O	0.0576	> 33.3	0.0059 µM	> 33.3 µM	0.29	> 33.3 µM	0.0476	> 33.3 µM	0.0109	0.252 µM	0.0433	> 33.3 µM	0.00754 µM	> 33.3 µM	0.0365	0.314 µM	0.0483	> 33.3 µM	0.0615	> 33.3 µM
O=C(CI)Nc1ccc(O)c2ccccc12	2.28	6.25	0.504 µM	2.8 µM	1.67	5.61 µM	1.67	3.69 µM	0.857	2.23 µM	1.85	3.55 µM	1.65 µM	4.61 µM	3.38	11.3 µM	1.61	3.3 µM	3.39	11.7 µM
CO[C@H]1C[C@](C)(O)Cc2cc3c(c(O)c21)C(=O)c1c(O)cc2c(c1C3=O)O[C@@H]1O[C@@]2(C)[C@H](O)[C@@H](N(C)C)[C@@H]1O		7.3	1.56 µM	5.79 µM and 15.6 µM		3.26 µM and 5.15 µM		2.03 µM and 6.54 µM	1.92	4.03 µM and 8.09 µM	1.37	3.3 µM and 15 µM	0.667 µM and 0.494 µM	3.66 µM and 10.9 µM	0.513	1.96 µM and 2.14 µM	0.56	2.57 µM and 3.48 µM	0.578	5.95 µM and 7.5 µM
O=C1C(=O)c2ccccc2C(O)=C1CCCc1ccc(C2CCCCC2)cc1	3.19	39.3	5.11 µM	> 100 µM	5.42	27.6 µM	4.14	61.4 µM	0.96	15.2 µM	17	42.2 µM	1.8 µM	23.7 µM	1.89	6.36 µM	6.35	> 100 µM	5.66	> 100 µM

— PubChem BioAssay (NCI)
